Experimental data taken from patent publication EP1077981B1, “NOVEL CEPHALOSPORIN COMPOUNDS, PROCESSES FOR PREPARATION THEREOF AND ANTIMICROBIAL COMPOSITIONS CONTAINING THE SAME” (LG CHEMICAL LIMITED, priority 1998, dated 1999).
Converted amounts (≈) assume the structure as drawn.

What was measured:
Assay in all cases: MIC against standard strains (agar dilution)
Format in all cases: cell-based
[1] = tested on: Acinetobacter calcoaceticu 15473; settings: Acinetobacter, 15473, 20 h
Method: (§1) Test example 1: Measurement of Minimum Inhibitory Concentration (MIC)
(§2) Specifically, test compounds were diluted by 2-fold dilution method and dispersed in Mueller-Hinton agar medium and then, 2µℓ of test strains were inoculated at a concentration of 10^7 cfu(colony forming unit)/mℓ on the medium and incubated for 20 hours at 37°C.

[2] = tested on: Citrobacter diversus 2046E; settings: Citrobacter koseri, 2046E, 20 h
Method: as §1, §2

[3] = tested on: Citrobacter freundii 8090; settings: Citrobacter freundii, 8090, 20 h
Method: as §1, §2

[4] = tested on: Enterobacter cloacae IND+VE 1194E; settings: Enterobacter cloacae, 20 h
Method: as §1, §2

Enterobacter cloacae P99 = settings: Enterobacter cloacae, P99, 20 h
Method: as §1, §2

[5] = tested on: Enterococcus faecalis 29212; settings: Enterococcus faecalis, 29212, 20 h
Method: as §1, §2

Escherichia coli 10536 = settings: Escherichia coli, 10536, 20 h
Method: as §1, §2

Escherichia coli 3190Y = settings: Escherichia coli, 3190Y, 20 h
Method: as §1, §2

Escherichia coli 851E = settings: Escherichia coli, 851E, 20 h
Method: as §1, §2

[6] = tested on: Escherichia coli TEM1 1193E; settings: TEM11193E, 20 h
Method: as §1, §2

[7] = tested on: Escherichia coli TEM3 3455E; settings: TEM33455E, 20 h
Method: as §1, §2

[8] = tested on: Escherichia coli TEM9 2639E; settings: Escherichia coli, TEM92639E, 20 h
Method: as §1, §2

[9] = tested on: Klebsiella aerogenes K1+ 1082E; settings: Klebsiella aerogenes, 20 h
Method: as §1, §2

[10] = tested on: Klebsiella aerogenes SHV-1 1976E; settings: Klebsiella aerogenes, 20 h
Method: as §1, §2

[11] = tested on: Klebsiella pneumoniae 2011E; settings: Klebsiella pneumoniae, 2011E, 20 h
Method: as §1, §2

[12] = tested on: Moraxella catarrhalis 25240; settings: Moraxella catarrhalis, 25240, 20 h
Method: as §1, §2

[13] = tested on: Moraxella catarrhalis C2431; settings: Moraxella catarrhalis, C2431, 20 h
Method: as §1, §2

[14] = tested on: Morganella morganii 1375E; settings: Morganella morganii, 1375E, 20 h
Method: as §1, §2

Proteus vulgaris 6059 = settings: Proteus vulgaris, 6059, 20 h
Method: as §1, §2

[15] = tested on: Pseudomonas aeruginosa 1912E; settings: Pseudomonas aeruginosa, 1912E, 20 h
Method: as §1, §2

[16] = tested on: Pseudomonas aeruginosa 6065Y; settings: Pseudomonas aeruginosa, 6065Y, 20 h
Method: as §1, §2

[17] = tested on: Salmonella typhimurium 14028; settings: Salmonella enterica, TYPHIMURIUM, 20 h
Method: as §1, §2

[18] = tested on: Serratia marcescens 1826E; settings: Serratia marcescens, 1826E, 20 h
Method: as §1, §2

[19] = tested on: Staphylococcus aureus 241; settings: Staphylococcus aureus, 241, 20 h
Method: as §1, §2

[20] = tested on: Staphylococcus aureus 6538p; settings: Staphylococcus aureus, 6538P, 20 h
Method: as §1, §2

Staphylococcus aureus 77 = settings: Staphylococcus aureus, 77, 20 h
Method: as §1, §2

[21] = tested on: Staphylococcus aureus giorgio; settings: Staphylococcus aureus, 20 h
Method: as §1, §2

[22] = tested on: Staphylococcus epidermidi 887E; settings: Staphylococcus, 887E, 20 h
Method: as §1, §2

| Structure (SMILES) | MIC [1] [µg/mL] | MIC [2] [µg/mL] | MIC [3] [µg/mL] | MIC [4] [µg/mL] | MIC (Enterobacter cloacae P99) [µg/mL] | MIC [5] [µg/mL] | MIC (Escherichia coli 10536) [µg/mL] | MIC (Escherichia coli 3190Y) [µg/mL] | MIC (Escherichia coli 851E) [µg/mL] | MIC [6] [µg/mL] | MIC [7] [µg/mL] | MIC [8] [µg/mL] | MIC [9] [µg/mL] | MIC [10] [µg/mL] | MIC [11] [µg/mL] | MIC [12] [µg/mL] | MIC [13] [µg/mL] | MIC [14] [µg/mL] | MIC (Proteus vulgaris 6059) [µg/mL] | MIC [15] [µg/mL] | further results |
| --- | --- | --- | --- | --- | --- | --- | --- | --- | --- | --- | --- | --- | --- | --- | --- | --- | --- | --- | --- | --- | --- |
| C#CCO/N=C(\C(=O)NC1C(=O)N2C(C(=O)O)=C(Sc3cc(N)nc(N)n3)CSC12)c1csc(N)n1 (centres unmarked) [compound 28, 7-[(Z)-2-(2-amino-thiazol-4-yl)-2-propyn-2-yioxyimino-acetylamino]-3-(2,6-diamino-pyrimidin-4-ylsulfanyl)-8-oxo-5-thia1-aza-bicyclo[4,2,0]oct-2-ene-2-carboxylic acid] | 32 (≈ 58.4 µM) | > 64 | 2 (≈ 3.65 µM) | > 64 | > 64 | 32 (≈ 58.4 µM) | 0.25 (≈ 0.457 µM) | 0.13 (≈ 0.237 µM) | 0.25 (≈ 0.457 µM) | 0.5 (≈ 0.913 µM) | 16 (≈ 29.2 µM) | 64 (≈ 117 µM) | > 64 | 0.5 (≈ 0.913 µM) | 2 (≈ 3.65 µM) | 0.016 (≈ 0.0292 µM) | 0.016 (≈ 0.0292 µM) | 0.25 (≈ 0.457 µM) | 0.031 (≈ 0.0566 µM) | 32 (≈ 58.4 µM) | MIC [16]: 64 µg/mL (≈ 117 µM); MIC [17]: 1 µg/mL (≈ 1.83 µM); MIC [18]: 8 µg/mL (≈ 14.6 µM); MIC [19]: 8 µg/mL (≈ 14.6 µM); MIC [20]: 1 µg/mL (≈ 1.83 µM); MIC (Staphylococcus aureus 77): 4 µg/mL (≈ 7.3 µM); MIC [21]: 0.5 µg/mL (≈ 0.913 µM); MIC [22]: 8 µg/mL (≈ 14.6 µM) |
| CCO/N=C(\C(=O)NC1C(=O)N2C(C(=O)O)=C(Sc3cc(N)nc(N)n3)CSC12)c1nsc(N)n1 (centres unmarked) [compound 29] | 32 (≈ 59.4 µM) | > 64 | 2 (≈ 3.71 µM) | > 64 | > 64 | 64 (≈ 119 µM) | 0.13 (≈ 0.241 µM) | 0.063 (≈ 0.117 µM) | 0.25 (≈ 0.464 µM) | 1 (≈ 1.86 µM) | 32 (≈ 59.4 µM) | 64 (≈ 119 µM) | > 64 | 1 (≈ 1.86 µM) | 2 (≈ 3.71 µM) | ≤ 0.008 | ≤ 0.008 | 0.25 (≈ 0.464 µM) | 0.063 (≈ 0.117 µM) | 8 (≈ 14.9 µM) | MIC [16]: > 64 µg/mL; MIC [17]: 1 µg/mL (≈ 1.86 µM); MIC [18]: 4 µg/mL (≈ 7.43 µM); MIC [19]: 8 µg/mL (≈ 14.9 µM); MIC [20]: 2 µg/mL (≈ 3.71 µM); MIC (Staphylococcus aureus 77): 4 µg/mL (≈ 7.43 µM); MIC [21]: 1 µg/mL (≈ 1.86 µM); MIC [22]: 8 µg/mL (≈ 14.9 µM) |
